Patent publication US7262186B2, “Substituted pyrazolo[3,4-d] pyrimidinones as a mitotic kinesin inhibitor” (Merck & Co., Inc., priority 2001, dated 2007)
pIC50: −log10 of the molar value.

Molecular target: T1, human KSP motor domain (KSP(367H)) (Homo sapiens, UniProt P52732)
T1 construct: were used to amplify the motor domain and the neck linker region; made in house; host or cells: E. coli BL21 (DE3), pRSETa vector
T1 sequence (P52732 18-359 limits assumed): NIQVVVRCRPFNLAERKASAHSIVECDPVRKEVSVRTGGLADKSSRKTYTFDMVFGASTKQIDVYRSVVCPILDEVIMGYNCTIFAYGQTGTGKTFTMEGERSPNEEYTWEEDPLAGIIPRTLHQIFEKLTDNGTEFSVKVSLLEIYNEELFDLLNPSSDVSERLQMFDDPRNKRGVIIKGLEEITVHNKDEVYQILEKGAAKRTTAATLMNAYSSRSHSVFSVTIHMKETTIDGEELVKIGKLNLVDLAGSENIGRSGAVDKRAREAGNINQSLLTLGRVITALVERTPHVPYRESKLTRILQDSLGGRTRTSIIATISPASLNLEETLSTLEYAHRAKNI
Test: Kinesin ATPase in vitro assay
Type: biochemical
Details: microtubule-stimulated ATPase, 1 mM ATP, 23° C., quinaldine red/ammonium molybdate phosphate detection
From the text: I. Kinesin ATPase In Vitro Assay
Cloning and Expression of Human Poly-histidine Tagged KSP Motor Domain (KSP(367H))
Plasmids for the expression of the human KSP motor domain construct were cloned by PCR using a pBluescript full length human KSP construct (Blangy et al., Cell, vol. 83, pp 1159-1169, 1995) as a template. The N-terminal primer 5′-[…] (SEQ.ID.NO.: 1) and the C-terminal primer 5′-[…] […] (SEQ.ID.NO.: 2) were used to amplify the motor domain and the neck linker region. The PCR products were digested with AseI and XhoI, ligated into the NdeI/XhoI digestion product of pRSETa (Invitrogen) and transformed into E. coli BL21 (DE3).
Cells were grown at 37° C. to an OD600 of 0.5. […]
The kinesin motor domain is incubated with microtubules, 1 mM ATP (1:1 MgCl2: Na-ATP), and compound at 23° C. in buffer containing 80 mM K-HEPES (pH 7.0), 1 mM EGTA, 1 mM DTT, 1 mM MgCl2, and 50 mM KCl. […] Free phosphate from the ATP hydrolysis reaction is measured via a quinaldine red/ammonium molybdate assay by adding 150 μl of quench C buffer containing a 2:1 ratio of quench A:quench B. Quench A contains 0.1 mg/ml quinaldine red and 0.14% polyvinyl alcohol; quench B contains 12.3 mM ammonium molybdate tetrahydrate in 1.15 M sulfuric acid. The reaction is incubated for 10 minutes at 23° C., and the absorbance of the phospho-molybdate complex is measured at 540 nm.

- pIC50: ≥ 4.30
Structure (SMILES): CCC(c1nc2[nH]nc(Br)c2c(=O)n1Cc1ccccc1)N(CCN(C)C)C(=O)c1ccc(Br)cc1 (stereo not shown) [1-5, N-[1-(5-benzyl-3-bromo-4-oxo-4,5-dihydro-1H-pyrazolo[3,4-d]pyrimidin-6-yl)propyl]-4-bromo-N-[2-(dimethylamino)ethyl]benzamide]
